Assay type in all cases: in vivo
Test [1] deals with Echinochloa crus-galli. Nature of the test: Test Example 1: herbicidal effect test by soil treatment in paddy field. The conditions noted are these: 120 g/10a, paddy soil treatment just after sowing, 14 days after treatment. An excerpt:
(§1) A Wagner pot having an area of 1/10000 are was filled with paddy field soil and after adding water, a chemical fertilizer (N:P:K=17:17:17) was mixed, followed by puddling. Thereafter, 30 grains of each of Echinochloa crus-galli, broad-leaved weed (Lindernia pyxidaria and Monochoria vaginalis) and Scirpus juncoides seeds were sown to a depth of 0 to 1 cm. Immediately after the sowing, the pot was flooded, and the depth of water was kept at about 3 cm. The pot was subsequently managed in a glass greenhouse. Just after that, an emulsifiable concentrate prepared according to Formulation Example 5 by using the compound shown in Table 5 below was diluted with water, and a predetermined amount of the water-diluted formulation was added dropwise. The application rate of the active ingredient, by conversion, corresponded to 120 g per 10 are.
(§2) This test was performed with two replications per one formulation concentration plot, and 14 days after the formulation treatments, the weed suppression rate (%) was determined according to the following equation (Math. 1). Weed suppression rate (%)=(1−an average dry weight (g) of plants in treated plots/an average dry weight (g) of plants in untreated plots)×100 [Math. 1]

Test [2] relates to Lindernia pyxidaria. The test is described as above. The conditions noted are these: 120 g/10a, paddy soil treatment just after sowing, 14 days after treatment.
Text: as §1, §2

Test [3] relates to Monochoria vaginalis. The description is as above. The following applies: 120 g/10a, paddy soil treatment just after sowing, 14 days after treatment.
Text: as §1, §2

The test system of test [4] is Scirpus juncoides. The test is described as above. The following applies: 120 g/10a, paddy soil treatment just after sowing, 14 days after treatment.
Text: as §1, §2

Test [5] deals with Echinochloa crus-galli. Nature of the test: Test Example 2: herbicidal effect test by treatment during growing period in paddy field. The following applies: treatment 7 days after sowing, 120 g/10a, evaluated 14 days after treatment. The protocol: as §2
as §1, with “greenhouse. Seven days” for “greenhouse. Just”, “after sowing,” for “after that,”, “Table 6” for “Table 5”, “are. The test was performed with two replications per one formulation concentration plot, and 14 days after the formulation treatments, the weed suppression rate (%) was determined according to the equation (Math. 1).” for “are.”

Test [6] relates to Lindernia pyxidaria. The description is as above. The following applies: treatment 7 days after sowing, 120 g/10a, evaluated 14 days after treatment. The protocol: as §2
as §1, with “greenhouse. Seven days” for “greenhouse. Just”, “after sowing,” for “after that,”, “Table 6” for “Table 5”, “are. The test was performed with two replications per one formulation concentration plot, and 14 days after the formulation treatments, the weed suppression rate (%) was determined according to the equation (Math. 1).” for “are.”

In test [7] the test system is Monochoria vaginalis. The description is as above. The conditions noted are these: treatment 7 days after sowing, 120 g/10a, evaluated 14 days after treatment. The protocol: as §2
as §1, with “greenhouse. Seven days” for “greenhouse. Just”, “after sowing,” for “after that,”, “Table 6” for “Table 5”, “are. The test was performed with two replications per one formulation concentration plot, and 14 days after the formulation treatments, the weed suppression rate (%) was determined according to the equation (Math. 1).” for “are.”

Test [8] deals with Scirpus juncoides. The test is described as above. The following applies: treatment 7 days after sowing, 120 g/10a, evaluated 14 days after treatment. The protocol: as §2
as §1, with “greenhouse. Seven days” for “greenhouse. Just”, “after sowing,” for “after that,”, “Table 6” for “Table 5”, “are. The test was performed with two replications per one formulation concentration plot, and 14 days after the formulation treatments, the weed suppression rate (%) was determined according to the equation (Math. 1).” for “are.”

We go through 13 compounds from US11076595B2, “1-(n,n-disubstituted carbamoyl) 4-(substituted sulfonyl)triazolin-5-one derivative, 4-(n,n-disubstituted carbamoyl) 1-(substituted sulfonyl)triazolin-5-one derivative, and herbicide containing said derivative as active ingredient” (HOKKO CHEMICAL INDUSTRY CO., LTD., priority 2017, dated 2021).

Consider `CC(C)N(C(=O)n1ncn(S(=O)(=O)C2CCCCC2)c1=O)c1ccc(C(F)(F)F)cc1F` [Compound 1-323], for which the “weed suppression rate, Echinochloa crus-galli” value in test [1] and in test [5] was 100% each time. For the same compound, the “weed suppression rate, Lindemia pyxidaria” value was 100% in test [2] and 70% in test [6]. The “weed suppression rate, Monochoria vaginalis” value in test [3] is listed as 80%; in test [7], 70%. In addition, the entries for the “weed suppression rate, Scirpus juncoides” value in test [4] and in test [8] were 100% and 70%, respectively.

On to `Cc1ccc(S(=O)(=O)n2cnn(C(=O)N(c3ccc(Cl)nc3Cl)C(C)C)c2=O)cc1` [Compound 1-690], for which the “weed suppression rate, Echinochloa crus-galli” value in test [1] and in test [5] was 100% throughout. Besides, the “weed suppression rate, Lindemia pyxidaria” value in test [2] turned out to be 100%; in test [6] it was 90%. Moreover, the “weed suppression rate, Monochoria vaginalis” value in test [3] and in test [7] was 90% in each case. In addition, the “weed suppression rate, Scirpus juncoides” value in test [4] and in test [8] was 90% each time.

As for `CC(C)N(C(=O)n1ncn(S(=O)(=O)C2CCOC2)c1=O)c1ccc(F)cc1F` (racemic) [Compound 1-1161], the “weed suppression rate, Echinochloa crus-galli” value in test [1] and in test [5] was 90% each time. Further, the “weed suppression rate, Lindemia pyxidaria” value in test [2] and in test [6] was 80% throughout. Also, the “weed suppression rate, Monochoria vaginalis” value in test [3] and in test [7] was 80% throughout. The “weed suppression rate, Scirpus juncoides” value in test [4] and in test [8] was 90% each time.

`CC(C)N(C(=O)n1ncn(S(=O)(=O)C2CCCCC2)c1=O)c1ccc(Cl)nc1` [Compound 1-338]: the “weed suppression rate, Echinochloa crus-galli” value is 100% in test [1] and 90% in test [5]. In addition, the “weed suppression rate, Lindemia pyxidaria” value in test [2] is recorded as 90%; in test [6], 80%. For the same compound, the “weed suppression rate, Monochoria vaginalis” value in test [3] was 90%; in test [7] it was 80%. In addition, the “weed suppression rate, Scirpus juncoides” value amounted to 100% in test [4] and 90% in test [8].

Take `CC(C)N(C(=O)n1ncn(S(=O)(=O)N(C)C)c1=O)c1ccccc1F` [Compound 1-1093]: the “weed suppression rate, Echinochloa crus-galli” value in test [1] and in test [5] was 90% throughout. The “weed suppression rate, Lindemia pyxidaria” value in test [2] and in test [6] was 80% in each case. For the same compound, the “weed suppression rate, Monochoria vaginalis” value in test [3] and in test [7] was 80% each time. Besides, the “weed suppression rate, Scirpus juncoides” value in test [4] and in test [8] was 90% each time.

For `Cc1ccc(N(C(=O)n2ncn(S(=O)(=O)C3CCCCC3)c2=O)C(C)C)c(Cl)c1` [Compound 1-322], the “weed suppression rate, Echinochloa crus-galli” value in test [1] and in test [5] was 90% each time. Further, the “weed suppression rate, Lindemia pyxidaria” value in test [2] is recorded as 90%; in test [6], 80%. For the same compound, the “weed suppression rate, Monochoria vaginalis” value came out at 90% in test [3] and 80% in test [7]. Also, the “weed suppression rate, Scirpus juncoides” value in test [4] and in test [8] was 90% in each case.

For `Cc1cc(C)c(S(=O)(=O)n2cnn(C(=O)N(c3cccnc3F)C(C)C)c2=O)c(C)c1` [Compound 1-921], the “weed suppression rate, Echinochloa crus-galli” value in test [1] amounted to 90%; in test [5], 80%. Moreover, the “weed suppression rate, Lindemia pyxidaria” value in test [2] and in test [6] was 80% in each case. Also, the “weed suppression rate, Monochoria vaginalis” value in test [3] and in test [7] was 60% each time. Further, the “weed suppression rate, Scirpus juncoides” value in test [4] and in test [8] was 70% each time.

Turning to `Cc1ccc(N(C(=O)n2ncn(S(=O)(=O)C3CC3)c2=O)C(C)C)c(Cl)c1` [Compound 1-223], the “weed suppression rate, Echinochloa crus-galli” value came to 100% in test [1] and 90% in test [5]. Besides, the “weed suppression rate, Lindemia pyxidaria” value in test [2] and in test [6] was 80% in each case. For the same compound, the “weed suppression rate, Monochoria vaginalis” value in test [3] and in test [7] was 80% each time. For the same compound, the “weed suppression rate, Scirpus juncoides” value in test [4] and in test [8] was 90% each time.

Regarding `CC(C)N(C(=O)n1ncn(S(=O)(=O)C(C)C)c1=O)c1ccc(Cl)nc1` [Compound 1-97], the “weed suppression rate, Echinochloa crus-galli” value in test [1] and in test [5] was 90% in each case. In addition, the “weed suppression rate, Lindemia pyxidaria” value in test [2] and in test [6] was 80% in each case. The “weed suppression rate, Monochoria vaginalis” value in test [3] and in test [7] was 90% in each case. Also, the “weed suppression rate, Scirpus juncoides” value came to 90% in test [4] and 80% in test [8].

Turning to `Cc1cc(F)ccc1N(C(=O)n1ncn(S(=O)(=O)C2CC2)c1=O)C(C)C` [Compound 1-220], the “weed suppression rate, Echinochloa crus-galli” value in test [1] and in test [5] was 100% throughout. Moreover, the entries for the “weed suppression rate, Lindemia pyxidaria” value in test [2] and in test [6] were 100% and 90%, respectively. Further, the “weed suppression rate, Monochoria vaginalis” value in test [3] amounted to 80%; in test [7], 100%. In addition, the “weed suppression rate, Scirpus juncoides” value in test [4] and in test [8] was 90% each time.

Turning to `CC(C)N(C(=O)n1ncn(S(=O)(=O)N(C)C)c1=O)c1ccc(Cl)nc1` [Compound 1-1135], the “weed suppression rate, Echinochloa crus-galli” value in test [1] and in test [5] was 90% each time. For the same compound, the figures for the “weed suppression rate, Lindemia pyxidaria” value in test [2] and in test [6] were 90% and 60%, respectively. Besides, the “weed suppression rate, Monochoria vaginalis” value in test [3] amounted to 60%; in test [7] it was 70%. Also, the “weed suppression rate, Scirpus juncoides” value in test [4] and in test [8] was 90% in each case.

For `CC(C)N(C(=O)n1ncn(S(=O)(=O)C2CC2)c1=O)c1ccc(Br)cc1Cl` [Compound 1-218], the “weed suppression rate, Echinochloa crus-galli” value in test [1] and in test [5] was 100% each time. The “weed suppression rate, Lindemia pyxidaria” value in test [2] and in test [6] was 100% throughout. Also, the “weed suppression rate, Monochoria vaginalis” value in test [3] and in test [7] was 80% throughout. The “weed suppression rate, Scirpus juncoides” value in test [4] and in test [8] was 100% in each case.

As to `Cc1ccc(N(C(=O)n2ncn(S(=O)(=O)C(C)C)c2=O)C(C)C)c(Cl)c1` [Compound 1-81], the “weed suppression rate, Echinochloa crus-galli” value in test [1] and in test [5] was 90% in each case. For the same compound, the “weed suppression rate, Lindemia pyxidaria” value in test [2] and in test [6] was 80% throughout. Besides, the “weed suppression rate, Monochoria vaginalis” value in test [3] and in test [7] was 80% throughout. The “weed suppression rate, Scirpus juncoides” value in test [4] and in test [8] was 90% in each case.
